Assays:
[1] = test system: patients' gliomas implanted in mice; conditions: cited from earlier work
[2] = test system: GBM; conditions: very little gets through the BBB and reaches the tumor; cited from earlier work
[3] = Fluorescence in mouse cerebral cortex after i.v. injection of albumin-FITC; type: in vivo; conditions: FIGS. 5A, 5B
Text: In addition to the peptide leu-enkephalin, and the small molecules: CF, uranyl acetate, kyotorphin and sucrose, the inventors have also successfully encapsulated in these vesicles the proteins albumin and trypsinogen and the polysaccharide Dextran-FITC (MW 9000).

Compound	potency rank against patients' gliomas implanted in mice ([1]; out of 40 drugs tested)	effectiveness against tumors tested ([1]; patients' gliomas implanted in mice)	outcome of attempts to treat GBM patients [2]	delivery of albumin-FITC to the brain (brain accumulation) [3]
CCc1c2c(nc3ccc(OC(=O)N4CCC(N5CCCCC5)CC4)cc13)-c1cc3c(c(=O)n1C2)COC(=O)[C@]3(O)CC [CPT-11, (S)-4,11-diethyl-3,4,12,14-tetrahydro-4-hydroxy-3,14-dioxo1H-pyrano[3′,4′:6,7]-indolizino[1,2-b]quinolin-9-yl-[1,4′bipiperidine]-1′-carboxylate]	the most potent chemotherapeutic agent	effective against every tumor tested	unsuccessful	
un-encapsulated albumin-FITC: albumin-FITC (non-encapsulated)				little, if any, brain accumulation
